From paper PMC9691367, “The PROTAC selectively degrading Bcl-xL represents a novel Hedgehog pathway inhibitor with capacity of combating resistance to Smoothened inhibitors while sparing bone growth” (Theranostics, 2022)
“And” between values parts separate entries of the source, which are not always exact repeats. Equal values may be shown once. Read-outs that look alike come from different tables or passages of the source.

Experiments:
[1] = system: Hh pathway (Gli-luciferase) in light II cells; assay: Dual luciferase reporter assay, Gli-luciferase provoked by SAG in light II cells; assay type: cell-based; settings: SAG 100 nM, 36 h, read-out: IC50 value inhibiting the Gli-luciferase activity provoked by SAG
Description: Cells seeded in 96-well plates were treated with various treatments as indicated. The luciferase activity in the cell lysates was measured using Dual-Luciferase Reporter Assay System (Promega, Madison, WI, USA) according to the manufacturer's instructions in a luminometer (Molecular Devices, Sunnyvale, CA). The firefly luciferase values were normalized to Renilla values.

[2] = system: bone growth of young mice; assay: Bone growth of young mice (body weight, Micro-CT, H&E, IHC); assay type: in vivo, mouse
Description: Skeleton Micro-CT images of mice were taken under anesthesia. The femurs were fixed and stored in 4% PFA at 4 °C. Mice and femurs were scanned using Inveon PET-CT (Siemens). Bone tissues were computed with Inveon Acquisition Workplace (IAW). Image data were visualized and analyzed by Inveon Viewer.
Femurs were fixed in 4% PFA and decalcified in 14% EDTA for 2 weeks at 4 °C. Bone tissues were embedded in paraffin. Thin sections were stained with hematoxylin and eosin (H&E) according to the manufacturer's instructions. For immunohistochemistry (IHC), paraffin-embedded sections of femurs were baked at 60 °C for 20 min, deparaffinized by xylene for 25 min, rehydrated through ethanol series, and incubated with citrate buffer at 95 °C for 20 min for antigen retrieval. Sections were incubated with the primary antibodies as indicated overnight at 4 °C, followed by goat anti-rabbit secondary antibody. The primary antibodies used in this study include Bcl-xL (1:2000, ab178844, Abcam) and Gli1 (1:100, 101156-T10, Sino Biological).

Bcl-2 = Bcl-2 (Homo sapiens, UniProt P10415); assay: Competitive fluorescence polarization assay, Bcl-2 / FAM-Bax; assay type: binding; settings: Bcl-2 100 nM, FAM-Bax 5 nM
Description: Competitive fluorescence polarization assays were carried out in black-walled plates in assay buffer (20 mM Na2HPO4 ·12H2O, 20 mM NaH2PO4·12H2O, 1 mM EDTA, 50 mM NaCl, 0.05% PF-68). The use of protein/peptide probe pairs was as follows: Bcl-xL (5 nM) and FAM-Bad (5 nM), Bcl-2 (100 nM) and FAM-Bax (5 nM), Mcl-1 (100 nM) and FAM-Bim (5 nM). Assay buffer, proteins, drugs, and peptides were added to the assay plates sequentially. The assay plates were slightly shaken for 3 min and incubated for 30 min at room temperature. The fluorescence polarization was measured on a Synergy 2 reader (BioTek).

Gli1 = assay: Immunofluorescence staining of Gli1 in 293T cells transfected with Gli1; assay type: cell-based; settings: 293T cells transfected with Gli1, 1 µM, 24 h
Description: Cells were fixed with 4% paraformaldehyde (PFA) for 15 min, permeabilized with 0.3% Triton X-100 in PBS for 10 min, and blocked with 1% BSA in PBS for 2 h. After that, the cells were further incubated with rabbit anti-Gli1 antibody (#101156-T10, SinoBiological) at 4 °C overnight. Then cells were stained with the Alexa Fluor®594-conjugated Goat Anti-rabbit IgG secondary antibody (red) for 1.5 h. Nuclei were counterstained with DAPI (blue). The immunofluorescent images of cells were captured under a fluorescence microscope (Leica).

[3] = Pharmacokinetic study in male ICR mice; assay type: in vivo, mouse; settings: for MRT last: read-out: MRT(0-t); for MRT inf: read-out: MRT(0-∞)
Description: Standard pharmacokinetic (PK) studies were conducted using male ICR Mice. A single 2 mg/kg intravenous (i.v.) injection, 10 mg/kg intraperitoneal (i.p.) injection or 10 mg/kg oral (p.o.) administration of SIAIS361034 was evaluated. Plasma concentrations of SIAIS361034 at each of the 7 time points (0.25 h, 0.5 h, 1 h, 2 h, 4 h, 8 h, and 24 h post dosing) are the average values from 3 animals.

[4] = male ICR mice, 2 mg/kg IV, individual animals (Mouse 1-3), 2 mg/kg
[5] = male ICR mice, 10 mg/kg IP, individual animals (Mouse 1-3), 10 mg/kg
[6] = male ICR mice, 10 mg/kg PO, individual animals (Mouse 1, 3; Mouse 2 NA), 10 mg/kg
[7] = male ICR mice, 10 mg/kg PO, individual animals (Mouse 1-3), 10 mg/kg
[8] = male, ICR, mouse, plasma, ip, 10 mg/kg, male ICR mice, 10 mg/kg IP, individual animals (Mouse 1-3)
[9] = male, ICR, mouse, plasma, ip, 10 mg/kg, male ICR mice, 10 mg/kg IP, mean of 3 animals
[10] = male, ICR, mouse, plasma, iv, 2 mg/kg, male ICR mice, 2 mg/kg IV, individual animals (Mouse 1-3)
[11] = male, ICR, mouse, plasma, iv, 2 mg/kg, male ICR mice, 2 mg/kg IV, mean of 3 animals
[12] = male, ICR, mouse, plasma, po, 10 mg/kg, male ICR mice, 10 mg/kg PO, mean

Chain of Bcl-2 (P10415 whole entry, species assumed): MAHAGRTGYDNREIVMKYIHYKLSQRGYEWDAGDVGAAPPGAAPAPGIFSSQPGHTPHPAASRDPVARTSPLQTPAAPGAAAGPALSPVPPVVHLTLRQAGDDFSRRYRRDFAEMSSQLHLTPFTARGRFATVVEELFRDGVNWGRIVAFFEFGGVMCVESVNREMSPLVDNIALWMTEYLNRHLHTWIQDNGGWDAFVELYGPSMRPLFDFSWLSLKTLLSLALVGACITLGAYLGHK

CC1(C)CCC(c2ccc(Cl)cc2)=C(CN2CCN(c3ccc(C(=O)NS(=O)(=O)c4ccc(NCCCN5CCN(CCCC#Cc6cccc7c6CN(C6CCC(=O)NC6=O)C7=O)CC5)c(S(=O)(=O)C(F)(F)F)c4)cc3)CC2)C1 (centres unmarked) [SIAIS361034]
IC50 [1]: 120 nM | columnar organization of chondrocytes in the growth plate (H&E) ([2]; cross sections of the femur, mice treated P12 to P16): not destroyed | skeleton (Micro-CT) ([2]; mice at 6 weeks of age, treated P12 to P16): no abnormalities in the skeleton | growth plate of femurs (Micro-CT) compared with Vehicle ([2]; mice treated P12 to P16): no significant difference | levels of Bcl-xL in femurs (IHC) ([2]; mice treated P12 to P16): No change | expression levels of Gli1 in femurs (IHC) ([2]; mice treated P12 to P16, compared with Vehicle): no alteration | Ki (Bcl-2): 15.1 nM | translocation of Gli1 from cytoplasm into nucleus (Gli1): suppressed translocation of Gli1 from cytoplasm into nucleus | AUC(0-t) [3, 4]: 6203 ng·h/mL and 4263 ng·h/mL | AUC(0-∞) [3, 4]: 6222 ng·h/mL and 4305 ng·h/mL | C0 [3, 4]: 34215 ng/mL and 79513 ng/mL and 43287 ng/mL | Cl [3, 4]: 5.35 mL/min/kg and 7.75 mL/min/kg | Cmax [3, 4]: 17900 ng/mL and 13200 ng/mL | MRT(0-t) [3, 4]: 0.30 h and 0.31 h | MRT(0-∞) [3, 4]: 0.40 h and 0.42 h | T1/2 [3, 4]: 1.79 h and 6.38 h and 2.29 h | Vss [3, 4]: 0.13 L/kg and 0.193 L/kg | Vz [3, 4]: 2.957 L/kg and 1.535 L/kg | AUC(0-t) [3, 5]: 20871 ng·h/mL and 15558 ng·h/mL | AUC(0-∞) [3, 5]: 22061 ng·h/mL and 16141 ng·h/mL | Cmax [3, 5]: 9700 ng/mL and 4920 ng/mL | F [3, 5]: 71.4% and 96.4% and 70.5% | MRT(0-t) [3, 5]: 5.16 h and 4.24 h | MRT(0-∞) [3, 5]: 6.68 h and 5.22 h | T1/2 [3, 5]: 5.23 h and 5.94 h | Tmax ([3]; male ICR mice, 10 mg/kg IP, individual animals (Mouse 1-3; 0.50 twice), 10 mg/kg): 0.50 h | AUC(0-∞) [3, 6]: 305 ng·h/mL and 111 ng·h/mL | MRT(0-∞) [3, 6]: 10.30 h and 2.82 h | T1/2 [3, 6]: 8.98 h and 2.39 h | F ([3]; male ICR mice, 10 mg/kg PO, individual animals (Mouse 1, 3; Mouse 2 and mean NA), 10 mg/kg): 1.33% and 0.484% | AUC(0-t) [3, 7]: 265 ng·h/mL and 213 ng·h/mL and 101 ng·h/mL | Cmax [3, 7]: 54.9 ng/mL and 49.1 ng/mL | MRT(0-t) [3, 7]: 6.29 h and 2.88 h and 2.01 h | Tmax ([3]; male ICR mice, 10 mg/kg PO, individual animals (Mouse 1-3; 1.00 twice), 10 mg/kg): 2.00 h | AUC(0-inf) [3, 8]: 16300 ng·h/mL | half-life [3, 8]: 6.44 h | AUC(0-t) ([3]; male, ICR, mouse, plasma, ip, 10 mg/kg, male ICR mice, 10 mg/kg IP, individual animals (Mouse 1-3), read-out: AUC(0-t)): 15500 ng·h/mL | Cmax ([3]; male, ICR, mouse, plasma, ip, 10 mg/kg, male ICR mice, 10 mg/kg IP, individual animals (Mouse 1-3), read-out: Cmax): 7630 ng/mL | MRT last [3, 8]: 3.84 h | MRT inf [3, 8]: 5.25 h | Tmax ([3]; male, ICR, mouse, plasma, ip, 10 mg/kg, male ICR mice, 10 mg/kg IP, individual animals (Mouse 1-3; 0.50 twice), read-out: Tmax): 1 h | AUC(0-inf) [3, 9]: 18200 ng·h/mL | bioavailability [3, 9]: 79.4% | half-life [3, 9]: 5.87 h | AUC(0-t) ([3]; male, ICR, mouse, plasma, ip, 10 mg/kg, male ICR mice, 10 mg/kg IP, mean of 3 animals, read-out: AUC(0-t)): 17300 ng·h/mL | Cmax ([3]; male, ICR, mouse, plasma, ip, 10 mg/kg, male ICR mice, 10 mg/kg IP, mean of 3 animals, read-out: Cmax): 7420 ng/mL | MRT last [3, 9]: 4.41 h | MRT inf [3, 9]: 5.72 h | Tmax ([3]; male, ICR, mouse, plasma, ip, 10 mg/kg, male ICR mice, 10 mg/kg IP, mean of 3 animals, read-out: Tmax): 0.67 h | AUC(0-inf) [3, 10]: 3200 ng·h/mL | clearance [3, 10]: 10.4 mL/min/kg | AUC(0-t) ([3]; male, ICR, mouse, plasma, iv, 2 mg/kg, male ICR mice, 2 mg/kg IV, individual animals (Mouse 1-3), read-out: AUC(0-t)): 3190 ng·h/mL | Cmax ([3]; male, ICR, mouse, plasma, iv, 2 mg/kg, male ICR mice, 2 mg/kg IV, individual animals (Mouse 1-3), read-out: Cmax): 10300 ng/mL | MRT last [3, 10]: 0.22 h | MRT inf [3, 10]: 0.26 h | Vd ([3]; male, ICR, mouse, plasma, iv, 2 mg/kg, male ICR mice, 2 mg/kg IV, individual animals (Mouse 1-3), read-out: Vss): 0.163 L/kg | Vd ([3]; male, ICR, mouse, plasma, iv, 2 mg/kg, male ICR mice, 2 mg/kg IV, individual animals (Mouse 1-3), read-out: Vz): 1.61 L/kg | Tmax ([3]; male, ICR, mouse, plasma, iv, 2 mg/kg, male ICR mice, 2 mg/kg IV, individual animals (Mouse 1-3, same value), read-out: Tmax): 0.083 h | AUC(0-inf) [3, 11]: 4580 ng·h/mL | clearance [3, 11]: 7.83 mL/min/kg | half-life [3, 11]: 3.49 h | AUC(0-t) ([3]; male, ICR, mouse, plasma, iv, 2 mg/kg, male ICR mice, 2 mg/kg IV, mean of 3 animals, read-out: AUC(0-t)): 4550 ng·h/mL | C0 ([3]; male, ICR, mouse, plasma, iv, 2 mg/kg, male ICR mice, 2 mg/kg IV, mean of 3 animals, read-out: C0): 52300 ng/mL | Cmax ([3]; male, ICR, mouse, plasma, iv, 2 mg/kg, male ICR mice, 2 mg/kg IV, mean of 3 animals, read-out: Cmax): 13800 ng/mL | MRT last [3, 11]: 0.28 h | MRT inf [3, 11]: 0.36 h | Tmax ([3]; male, ICR, mouse, plasma, iv, 2 mg/kg, male ICR mice, 2 mg/kg IV, mean of 3 animals, read-out: Tmax): 0.083 h | Vd ([3]; male, ICR, mouse, plasma, iv, 2 mg/kg, male ICR mice, 2 mg/kg IV, mean of 3 animals, read-out: Vss): 0.162 L/kg | Vd ([3]; male, ICR, mouse, plasma, iv, 2 mg/kg, male ICR mice, 2 mg/kg IV, mean of 3 animals, read-out: Vz): 2.03 L/kg | Cmax ([3]; male, ICR, mouse, plasma, po, 10 mg/kg, male ICR mice, 10 mg/kg PO, individual animals (Mouse 1-3), read-out: Cmax): 50.9 ng/mL | Tmax ([3]; male, ICR, mouse, plasma, po, 10 mg/kg, male ICR mice, 10 mg/kg PO, individual animals (Mouse 1-3; 1.00 twice), read-out: Tmax): 1 h | AUC(0-inf) [3, 12]: 208 ng·h/mL | half-life [3, 12]: 5.68 h | AUC(0-t) ([3]; male, ICR, mouse, plasma, po, 10 mg/kg, male ICR mice, 10 mg/kg PO, mean of 3 animals, read-out: AUC(0-t)): 193 ng·h/mL | Cmax ([3]; male, ICR, mouse, plasma, po, 10 mg/kg, male ICR mice, 10 mg/kg PO, mean of 3 animals, read-out: Cmax): 51.6 ng/mL | MRT last ([3]; male, ICR, mouse, plasma, po, 10 mg/kg, male ICR mice, 10 mg/kg PO, mean of 3 animals): 3.73 h | Tmax ([3]; male, ICR, mouse, plasma, po, 10 mg/kg, male ICR mice, 10 mg/kg PO, mean of 3 animals, read-out: Tmax): 1.33 h | MRT inf [3, 12]: 6.56 h | pharmacokinetic property, oral ([3]; mice, 10 mg/kg p.o.): poor pharmacokinetic property | plasma exposure ([3]; mice, single 10 mg/kg i.p. or 2 mg/kg i.v., over 24 h): good plasma exposure
